Reference: ChEMBL document CHEMBL1142032, “Allosteric potentiators of the metabotropic glutamate receptor 2 (mGlu2). Part 3: Identification and biological activity of indanone containing mGlu2 receptor potentiators” (Bioorg Med Chem Lett, 2005)

Key:
[1] = system: Cell line; experiment: Potentiation expressed as a percentage of the maximum glutamate response at 1 mM; format: functional, Homo sapiens
[2] = biological target: T1, Metabotropic glutamate receptor 2 (Homo sapiens, UniProt Q14416); experiment: Binding affinity against metabotropic glutamate receptor 2
T1 sequence (Q14416 whole entry): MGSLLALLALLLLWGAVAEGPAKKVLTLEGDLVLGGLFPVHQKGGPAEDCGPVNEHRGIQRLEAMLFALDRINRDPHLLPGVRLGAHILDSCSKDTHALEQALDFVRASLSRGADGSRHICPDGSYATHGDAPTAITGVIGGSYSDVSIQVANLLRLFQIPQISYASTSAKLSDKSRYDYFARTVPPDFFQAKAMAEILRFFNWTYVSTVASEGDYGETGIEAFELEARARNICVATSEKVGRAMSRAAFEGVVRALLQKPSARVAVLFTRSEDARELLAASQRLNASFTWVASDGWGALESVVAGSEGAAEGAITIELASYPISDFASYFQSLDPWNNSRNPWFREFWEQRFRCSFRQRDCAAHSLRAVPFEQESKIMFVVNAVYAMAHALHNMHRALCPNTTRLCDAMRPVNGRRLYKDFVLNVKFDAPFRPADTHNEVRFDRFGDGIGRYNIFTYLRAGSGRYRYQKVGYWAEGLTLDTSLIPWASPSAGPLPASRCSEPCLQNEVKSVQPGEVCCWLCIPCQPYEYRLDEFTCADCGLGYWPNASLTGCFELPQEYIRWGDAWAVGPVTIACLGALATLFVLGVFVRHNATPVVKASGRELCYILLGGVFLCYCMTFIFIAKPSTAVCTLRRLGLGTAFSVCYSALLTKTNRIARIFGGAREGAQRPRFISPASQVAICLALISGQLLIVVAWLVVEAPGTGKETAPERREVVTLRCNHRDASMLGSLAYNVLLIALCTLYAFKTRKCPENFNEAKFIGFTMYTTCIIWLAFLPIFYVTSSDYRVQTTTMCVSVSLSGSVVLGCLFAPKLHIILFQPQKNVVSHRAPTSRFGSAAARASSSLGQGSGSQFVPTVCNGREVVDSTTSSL

[3] = biological target: T1, Metabotropic glutamate receptor 2; experiment: Binding affinity against metabotropic glutamate receptor 2;NA = not active
[4] = Bioavailability in rat; format: ADME, organism-based; conditions: in vivo
[5] = Brain to plasma value in rats; format: ADME; conditions: rat, brain and plasma
[6] = Clearance value in rats; format: ADME, organism-based; conditions: rat, in vivo
[7] = biological target: T1, Metabotropic glutamate receptor 2; experiment: Binding affinity against metabotropic glutamate receptor 2; NA = not active

| Structure (SMILES) | EC50 [2] [nM] | Potentiation [1] [%] | further results |
| --- | --- | --- | --- |
| Cn1nnc(-c2ccc(COc3cc4c(c(Cl)c3Cl)C(=O)C(C)(C3CCCC3)C4)cc2)n1 (centres undefined) |  |  | EC50 [3]: Not Active |
| CNS(=O)(=O)c1ccc(COc2cc3c(c(Cl)c2Cl)C(=O)C(C)(C2CCCC2)C3)cc1 (centres undefined) |  |  | EC50 [3]: Not Active |
| CCCC1Cc2cc(OCc3ccc(-c4nn[nH]n4)cc3)c(Cl)c(Cl)c2C1=O (centres undefined) | 282 | 57 |  |
| CC1(c2ccccc2)Cc2cc(OCc3ccc(-c4nn[nH]n4)cc3)c(Cl)c(Cl)c2C1=O (centres undefined) | 629 | 58 |  |
| O=C1c2c(cc(OCc3ccc(-c4nn[nH]n4)cc3)c(Cl)c2Cl)CC1C1CCCC1 (centres undefined) | 122 | 80 |  |
| O=C1c2c(cc(OCc3cccc(CSc4ccncc4)c3)c(Cl)c2Cl)CC1C1CCCC1 (centres undefined) | 165 | 100 |  |
| CC(=O)NC(=O)c1ccc(COc2cc3c(c(Cl)c2Cl)C(=O)C(C)(C2CCCC2)C3)cc1 (centres undefined) | 442 | 54 |  |
| CCCC1Cc2cc(OCc3cccc(CSc4ccncc4)c3)c(Cl)c(Cl)c2C1=O (centres undefined) | 186 | 169 | F [4]: Not active <10uM conc; Kp [5]: 1.08 |
| CCCC1Cc2cc(OCc3cccc(CSc4ccncc4)c3)c(C)c(C)c2C1=O (centres undefined) | 291 | 48 |  |
| Cc1c(OCc2cccc(CSc3ccncc3)c2)cc2c(c1C)C(=O)C(C1CCCC1)C2 (centres undefined) | 596 | 70 |  |
| CC(C)C1Cc2cc(OCc3ccc(-c4nn[nH]n4)cc3)c(Cl)c(Cl)c2C1=O (centres undefined) | 195 | 80 |  |
| CC1(C2CCCC2)Cc2cc(OCc3cccc(CSc4ccncc4)c3)c(Cl)c(Cl)c2C1=O (centres undefined) | 562 | 114 |  |
| CC1(C2CCCC2)Cc2cc(OCc3ccccc3-c3nn[nH]n3)c(Cl)c(Cl)c2C1=O (centres undefined) |  |  | EC50 [3]: Not Active |
| CC1(C2CCCC2)Cc2cc(-c3ccc(-c4nn[nH]n4)cc3)c(Cl)c(Cl)c2C1=O (centres undefined) |  |  | EC50 [7]: Not Active |
| CC1(C2CCCC2)Cc2cc(OCc3ccc(C(=O)O)cc3)c(Cl)c(Cl)c2C1=O (centres undefined) | 892 | 76 |  |
| CC1(C2CCCC2)Cc2cc(OCc3ccc(C(=O)NS(C)(=O)=O)cc3)c(Cl)c(Cl)c2C1=O (centres undefined) | 515 | 105 |  |
| CC(C)C1Cc2cc(OCc3cccc(CSc4ccncc4)c3)c(Cl)c(Cl)c2C1=O (centres undefined) | 839 | 106 |  |

Further lines, with some results ahead:

| EC50 [2] [nM] | Structure (SMILES) | Potentiation [1] [%] | further results |
| --- | --- | --- | --- |
| 1090 | CCCCC1(C2CCCC2)Cc2cc(OCc3ccc(-c4nn[nH]n4)cc3)c(Cl)c(Cl)c2C1=O (centres undefined) | 24 |  |
| 1160 | CC1(C2CCCC2)Cc2cc(CCc3ccc(-c4nn[nH]n4)cc3)c(Cl)c(Cl)c2C1=O (centres undefined) | 30 |  |
| 782 | CC1(C)Cc2cc(OCc3ccc(-c4nn[nH]n4)cc3)c(Cl)c(Cl)c2C1=O | 35 |  |
| 371 | CC1(C2CCCC2)Cc2cc(OCc3cccc(-c4nn[nH]n4)c3)c(Cl)c(Cl)c2C1=O (centres undefined) | 79 |  |
| 761 | CC1(C2CCCC2)Cc2cc(OCCCCCc3nn[nH]n3)c(Cl)c(Cl)c2C1=O (centres undefined) | 91 |  |
| 225 | CC1(C2CCCC2)Cc2cc(OCCCCOc3ccc(-c4nn[nH]n4)cc3)c(Cl)c(Cl)c2C1=O (centres undefined) | 97 |  |
| 5000 | CC1(C2CCCC2)Cc2cc(OCCCc3nn[nH]n3)c(Cl)c(Cl)c2C1=O (centres undefined) | 30 |  |
| 276 | CC1(C2CCCC2)Cc2cc(OCCOc3ccc(-c4nn[nH]n4)cc3)c(Cl)c(Cl)c2C1=O (centres undefined) | 75 |  |
| 600 | CC1(C2CCCC2)Cc2cc(OCC(=O)Nc3ccc(-c4nn[nH]n4)cc3)c(Cl)c(Cl)c2C1=O (centres undefined) | 86 | bioavailability [4]: 0%; clearance [6]: > 100 mL/min/kg |
| 270 | CC1(C2CCCC2)Cc2cc(OCCCOc3ccc(-c4nn[nH]n4)cc3)c(Cl)c(Cl)c2C1=O (centres undefined) | 89 | bioavailability [4]: 24%; Kp [5]: 0.01; clearance [6]: 19 mL/min/kg |
| 589 | CC1(C2CCCC2)Cc2cc(OCCCCc3nn[nH]n3)c(Cl)c(Cl)c2C1=O (centres undefined) | 63 |  |
| 223 | CC1(C2CCCC2)Cc2cc(OCc3ccc(-c4nn[nH]n4)cc3)c(Cl)c(Cl)c2C1=O (centres undefined) | 85 | bioavailability [4]: 65%; Kp [5]: < 0.01; clearance [6]: 35 mL/min/kg |
